Results from PubChem BioAssay (NCI).
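Growth conditions: 96-well plates. Treatment: test compound, 48 hours, 5 concentrations. Analysis: linear interpolation between bracketing concentrations; unreached endpoints set to highest concentration. At the GI50, growth is halved. TGI is the concentration that stops growth completely.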

Legend:
Assay in all cases: NCI tumour cell line growth inhibition, 48 h
ACHN renal = tested on: ACHN renal
CAKI-1 renal = tested on: CAKI-1 renal
EKVX NSCLC = tested on: EKVX NSCLC
KM12 colon = tested on: KM12 colon
SF-268 CNS = tested on: SF-268 CNS
SF-539 CNS = tested on: SF-539 CNS
T-47D breast = tested on: T-47D breast
HL-60(TB) leukemia = tested on: HL-60(TB) leukemia

Row | SMILES | GI50 (ACHN renal) | TGI (ACHN renal) | GI50 (CAKI-1 renal) | TGI (CAKI-1 renal) | GI50 (EKVX NSCLC) | TGI (EKVX NSCLC) | GI50 (KM12 colon) | TGI (KM12 colon) | GI50 (SF-268 CNS) | TGI (SF-268 CNS) | GI50 (SF-539 CNS) | TGI (SF-539 CNS) | GI50 (T-47D breast) | TGI (T-47D breast) | GI50 (HL-60(TB) leukemia) | TGI (HL-60(TB) leukemia)
1 | CCOC(=O)c1cc2c(cc1Cl)SC(=Nc1ccccc1)N(S(=O)(=O)c1ccc(Br)s1)S2(=O)=O | 14.4 µM | 27.5 µM | 17.5 µM | 32.8 µM | 15.5 µM | 32.3 µM | 17.6 µM | 33.3 µM | 19.2 µM | 46.5 µM | 14.3 µM | 29.3 µM | 15.6 µM | 53.9 µM |  | 
2 | COc1cc(-c2nn(-c3cccc(NC(=O)CCN4CCN(Cc5ccccc5)CC4)c3)cc2-c2ccncc2)ccc1Cl | 1.2 µM | 12.8 µM |  |  | 1.6 µM | 17.5 µM | 0.583 µM | 3.86 µM | 1.05 µM | 3.84 µM | 1.14 µM | 2.58 µM | 2.76 µM | 27.6 µM | 0.632 µM | 4.21 µM
3 | N/C(=N\OC(=O)c1ccccc1)C(Cc1ccccc1)C(=O)NOC(=O)c1ccccc1 (stereo not drawn) | 1.66 µM | 3.58 µM | 1.28 µM | 2.97 µM | 2.23 µM | 6.52 µM | 2.19 µM | 5.28 µM | 1.64 µM | 3.33 µM | 1.84 µM | 3.99 µM | 3.18 µM | 15.8 µM | 2.35 µM | 6.56 µM
4 | COc1cc2c(cc1F)C(c1ccccc1Cl)=Nc1c(n[nH]c1C)N2 | 1.45 µM | 10.2 µM | 0.609 µM | 14.7 µM | 2.84 µM | 18.4 µM | 0.502 µM | 15.5 µM | 1.14 µM | 11.7 µM | 0.389 µM | 2.39 µM | 1.59 µM | 26.4 µM | 0.838 µM | 20.8 µM
5 | O=C1C(OCCOc2ccccc2)=C(OCCOc2ccccc2)C(=O)c2ccccc21 | 5.09 µM | > 100 µM | 12.5 µM | > 100 µM | > 100 µM | > 100 µM | 4.71 µM | > 100 µM | 6.31 µM | > 100 µM | > 100 µM | > 100 µM | > 100 µM | > 100 µM | > 100 µM | > 100 µM
6 | Fc1ccc(/C=N/n2c(-c3ccc(F)c(Cl)c3)n[nH]c2=S)cc1 |  |  | 47.8 µM | > 100 µM | 32.3 µM | > 100 µM | 43.6 µM | > 100 µM | 19.8 µM | 42.1 µM | 32 µM | > 100 µM | 20.7 µM | 40.1 µM | 34.8 µM | > 100 µM
7 | O=Nc1c(-c2c(O)[nH]c3ncccc23)[nH]c2ccccc12 | 2.58 µM | > 100 µM | 1.9 µM | > 100 µM | 1.32 µM | > 100 µM | 1.32 µM | > 100 µM | > 100 µM | > 100 µM | > 100 µM | > 100 µM | 2.99 µM | > 100 µM | 7.58 µM | > 100 µM
8 | Cc1[nH]c(-c2cc(N)ccc2Cl)c2c1C(=O)CCCC2 | 3.42 µM | > 100 µM | 0.702 µM | 17.9 µM | 6.09 µM | > 100 µM | 5.47 µM | > 100 µM | 7.99 µM | > 100 µM | 3.13 µM | 26.7 µM | 3.47 µM | > 100 µM | 2.03 µM | 6.79 µM
9 | O=C(Nc1ccccc1OC(=O)c1ccccc1)c1ccccc1 | 43.6 µM | > 100 µM | 5.84 µM | 54.4 µM | 7.45 µM | > 100 µM | 3.12 µM | 10.9 µM | 3.98 µM | > 100 µM | 22.8 µM | > 100 µM | 41.9 µM | > 100 µM |  | 
10 | COC(=O)c1cc(-c2ccc(OC)c(OC)c2)[nH]c1N/N=C/c1c(Cl)cccc1Cl | 1.18 µM | 13.2 µM | 0.768 µM | 7.1 µM | 0.708 µM | 19.5 µM | 0.4 µM | 9.69 µM | 0.705 µM | 6.27 µM | 0.317 µM | 1.02 µM | 3.99 µM | 92.5 µM | 0.25 µM | 0.531 µM
11 | Fc1cccc(F)c1C(Nc1nncs1)Nc1nncs1 |  | > 100 µM |  | > 100 µM |  |  |  | > 100 µM |  | > 100 µM |  | > 100 µM |  | > 100 µM |  | 
12 | CCC(=O)Nc1ccc(N2C(=O)/C(=C/c3ccc(OC)cc3)N=C2c2ccccc2)cc1 | 5.62 µM | 16 µM | 6.4 µM | 21.7 µM | 42.9 µM | > 50 µM | 3.65 µM | > 50 µM | 4.88 µM | > 50 µM | 5.49 µM | 16 µM |  |  | 23.7 µM | > 50 µM
13 | CN=C1OC2(c3ccccc3)C3=C(OC(=NC)N2C)C(=O)OC3(c2ccccc2)N1C (stereo not drawn) |  | > 100 µM |  | > 100 µM |  | > 100 µM |  | > 100 µM |  | > 100 µM |  | > 100 µM |  | > 100 µM |  | > 100 µM
14 | CC(CO)(Nc1ccc([N+](=O)[O-])cc1[N+](=O)[O-])C(=O)O (stereo not drawn) |  | 32.7 µM |  | 89.8 µM |  | 71.3 µM |  | > 100 µM |  | 48.9 µM |  | 91.1 µM |  |  |  | 35.4 µM
15 | Cc1[nH]nc(-c2ccon2)c1N=O |  | 28.4 µM |  | 60.5 µM |  | 31.3 µM |  | 38.4 µM |  | 42.8 µM |  | 32.7 µM |  | 60.5 µM |  | 36.3 µM
16 | Cn1ccnc1Oc1ccc(Cl)cc1 |  | 25.4 µM |  |  |  | 49.1 µM |  |  |  | 99.4 µM |  | 31.7 µM |  | 14.3 µM |  | 11.1 µM
17 | CNNC(=NS(=O)(=O)c1cc(C#N)c(NNC)cc1S)NNC |  | > 10 µM |  | > 10 µM |  | > 10 µM |  | > 10 µM |  | > 10 µM |  | > 10 µM |  | > 10 µM |  | > 10 µM
18 | O=C1c2c(Br)sc(Br)c2[C@@H](NC(=O)C(F)(F)F)C1Br (stereo partly drawn) |  | 6.1 µM |  | 8.82 µM |  | 11.6 µM |  | 17.7 µM |  | 15.2 µM |  | 6.82 µM |  | 14.7 µM |  | 1.59 µM
19 | COc1ccc2c(c1)C(=O)c1c-2c(OCCN(C)C)nc2ccccc12 | 1.62 µM | 5.47 µM | 1.47 µM | 4.14 µM | 2.05 µM | 7.8 µM | 1.19 µM | 3.28 µM | 2.34 µM | 10.7 µM | 4.75 µM | 17.9 µM | 4.05 µM | 18.3 µM | 3.19 µM | 15.4 µM
20 | C=CCc1cc(Nc2c3ccc(Cl)cc3nc3ccc(OC)cc23)cc(CN(CC)CC)c1O | 2.12 µM | 13.1 µM | 2.4 µM | 11.1 µM | 0.661 µM | 11.1 µM | 2.08 µM | 12.3 µM | 2.9 µM | 16 µM | 2.45 µM | 9.16 µM | 0.499 µM | 4.28 µM |  | 
21 | COc1ccc(/C=C(\C)[N+](=O)[O-])cc1OC | 1.69 µM | 3.16 µM | 1.88 µM | 3.89 µM |  |  | 4.49 µM | 16.4 µM | 2.26 µM | 5.46 µM | 1.74 µM | 3.17 µM | 1.88 µM | 5.1 µM |  | 
22 | CN1CCc2nc3sc(C(N)=O)c(N)c3c(-c3cccs3)c2C1 |  |  | 2.82 µM | > 100 µM | 3.54 µM | > 100 µM | 2.7 µM | > 100 µM | 3.85 µM | > 100 µM | 2.35 µM | 6.79 µM | 2.81 µM | > 100 µM | 2.5 µM | 6.97 µM
23 | COc1ccc(Nc2ccnc(N3CCN(c4ccnc5cc(Cl)ccc45)CC3)n2)cc1 | 0.955 µM | > 24.5 µM | 0.576 µM | 3.92 µM |  |  | 1.01 µM | 4.16 µM | 2.31 µM | > 100 µM | 0.968 µM | 3.26 µM | 1.39 µM | 6.99 µM | 1.14 µM | 7.18 µM
24 | CC(C)C[C@H](NC(=O)CCn1ccc2ccccc2c1=O)B(O)O | 1.75 µM | > 100 µM | 2.93 µM | 27 µM |  |  | 7.51 µM | 29.8 µM | 5.69 µM | 30.4 µM | 1.61 µM | 5.62 µM | 3.71 µM | 29.3 µM | 2.69 µM | 49.5 µM
25 | CC1c2ccccc2CCN1c1ccc(CO)c(Cl)c1 (stereo not drawn) | 22.6 µM | > 81 µM | 3.46 µM | 50.3 µM |  |  | 22.6 µM | > 72.5 µM | 40.8 µM | > 100 µM | 19.1 µM | 47.3 µM | 0.053 µM | 0.311 µM | 21.3 µM | 70.2 µM
26 | N#CCCNc1nonc1-c1nc2ccccc2n1CC(=O)c1ccc(NC(=O)[C@@H](N)CCCCN)cc1 | 0.0583 µM | > 100 µM | 0.061 µM | > 100 µM |  |  | 0.0279 µM |  | 0.071 µM | > 100 µM |  |  | > 73.8 µM | > 100 µM | 0.0317 µM | 
27 | COc1cc(C(=O)c2cc(C)c3[nH]c4ccc(O)cc4c3c2C)cc(OC)c1OC | < 0.0128 µM | > 100 µM | < 0.01 µM | > 47.6 µM | 0.0466 µM | > 100 µM | < 0.0127 µM | 23.8 µM | 0.0741 µM | > 100 µM | < 0.0113 µM |  |  |  | 0.0246 µM | 0.0797 µM
